These results are taken from US10124004B2, “Pyrido[3,4-d]pyrimidine derivative and pharmaceutically acceptable salt thereof” (Teijin Pharma Limited, priority 2015, dated 2018).

pIC50: −log10 of the molar value.

The target of one assay is T1, CDK2/cyclin A2 (Homo sapiens, UniProt P24941).
T1 construct: purchased Carna Biosciences, Inc. QS S Assist CDK2/Cyclin A2_FP Kit
Briefly: Human CDK2/cyclin A2 inhibitory activity (QS S Assist CDK2/Cyclin A2_FP Kit, IMAP fluorescence polarization). The assay is classed as biochemical. The following applies: 50% inhibitory concentration against CDK2/cyclin A2, given as class symbol. The method in brief:
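Kinase activity read as fluorescence polarization (485/535 nm) after phosphorylated fluorescent substrate binds IMAP reagent (30 min, RT, dark). Enzyme (2.5 ng/well) reacted 60 min at RT with ATP/substrate/metal in HEPES pH 7.4 buffer with Tween 20 and DTT; no-enzyme wells define 0% activity; IC50 by curve fit.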

A further assay deals with T2, CDK4/cyclin D3 (Homo sapiens, UniProt P11802).
T2 construct: purchased Carna Biosciences, Inc. QS S Assist CDK4/Cyclin D3_FP Kit
Description: Human CDK4/cyclin D3 inhibitory activity (QS S Assist CDK4/Cyclin D3_FP Kit, IMAP fluorescence polarization). It is filed as biochemical. The following applies: 50% inhibitory concentration against CDK4/cyclin D3, given as class symbol. The method in brief:
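IMAP fluorescence polarization kit: CDK4/cyclin D3 at 12.5-25 ng/well with kit ATP/substrate/metal mix in 20 mM HEPES pH 7.4, 0.01% Tween20, 2 mM DTT, 45 min at room temperature. FP read at 485/535 nm after 30 min binding; IC50 from dose-response fit of percent inhibition versus enzyme and no-enzyme controls.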

T2 sequence (P11802 whole entry): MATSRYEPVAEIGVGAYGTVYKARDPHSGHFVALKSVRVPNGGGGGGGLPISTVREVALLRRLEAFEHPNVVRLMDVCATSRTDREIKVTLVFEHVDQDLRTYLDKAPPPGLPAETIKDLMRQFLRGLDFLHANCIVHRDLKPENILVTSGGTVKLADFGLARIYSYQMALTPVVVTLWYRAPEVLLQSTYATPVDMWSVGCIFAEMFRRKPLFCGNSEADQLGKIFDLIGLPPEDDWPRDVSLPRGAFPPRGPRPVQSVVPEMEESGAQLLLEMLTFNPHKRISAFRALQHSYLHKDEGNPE
T2 sequence (P30281 whole entry partner): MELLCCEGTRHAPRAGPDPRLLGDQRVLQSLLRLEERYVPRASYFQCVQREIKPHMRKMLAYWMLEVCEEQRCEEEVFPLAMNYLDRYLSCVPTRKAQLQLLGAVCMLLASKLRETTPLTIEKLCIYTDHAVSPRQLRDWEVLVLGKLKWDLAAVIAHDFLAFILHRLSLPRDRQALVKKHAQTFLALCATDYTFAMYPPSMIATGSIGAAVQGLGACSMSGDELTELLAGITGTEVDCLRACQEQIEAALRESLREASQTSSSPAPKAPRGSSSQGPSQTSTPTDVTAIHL

On to `CO[C@H](C)c1cc2cnc(Nc3ccc(CN4CCN(CCO)CC4)cn3)nc2c(N[C@@H](C)CO)n1` [Compound 915], for which the pIC50 on CDK2/cyclin A2 is no more than 7.00; on CDK4/cyclin D3 it was greater than 8.00.

For `COC[C@@H](C)Nc1nc([C@@H](C)OC)cc2cnc(Nc3ccc(CN4CCN(CCO)CC4)cn3)nc12` [Compound 916], the results for the pIC50 on CDK2/cyclin A2 and against CDK4/cyclin D3 were no more than 7.00 and greater than 8.00, respectively.

For `CO[C@H](C)c1cc2cnc(Nc3ccc(CN4CCN(CCO)CC4)cn3)nc2c(N[C@H]2CC[C@H](O)CC2)n1` [Compound 917], the pIC50 at CDK2/cyclin A2 is no more than 7.00; against CDK4/cyclin D3, greater than 8.00.

On to `CO[C@H](C)c1cc2cnc(Nc3ccc(CN4CCN(CCO)CC4)cn3)nc2c(NCC2CCOCC2)n1` [Compound 918], for which the pIC50 against CDK2/cyclin A2 is no more than 7.00; on CDK4/cyclin D3, greater than 8.00.

For the compound `CCNc1nc([C@@H](C)OC)cc2cnc(Nc3ccc(N4CCNCC4)cn3)nc12` [Compound 919], the negative-log IC50 (pIC50) on CDK2/cyclin A2 was no more than 7.00; against CDK4/cyclin D3 it was greater than 8.00.

With `CCCNc1nc([C@@H](C)OC)cc2cnc(Nc3ccc(N4CCNCC4)cn3)nc12` [Compound 920], the results for the pIC50 against CDK2/cyclin A2 and against CDK4/cyclin D3 were no more than 7.00 and greater than 8.00, respectively.

Turning to `CCCNc1nc([C@@H](C)O)cc2cnc(Nc3ccc(N4CCNCC4)cn3)nc12` [Compound 921], the pIC50 is no more than 7.00 on CDK2/cyclin A2 and greater than 8.00 against CDK4/cyclin D3.

Turning to `CCCCNc1nc([C@@H](C)O)cc2cnc(Nc3ccc(N4CCNCC4)cn3)nc12` [Compound 922], the results for the pIC50 against CDK2/cyclin A2 and at CDK4/cyclin D3 were no more than 7.00 and greater than 8.00, respectively.

As for `CC(C)Nc1nc([C@@H](C)O)cc2cnc(Nc3ccc(N4CC(C)(C)NCC4=O)cn3)nc12` [Compound 923], the figures for the pIC50 against CDK2/cyclin A2 and against CDK4/cyclin D3 were no more than 7.00 and greater than 8.00, respectively.

Take `Cc1nc(Nc2ncc3cc([C@@H](C)O)nc(NC(C)C)c3n2)ccc1N1CCNCC1` [Compound 924]: the results for the negative-log IC50 (pIC50) at CDK2/cyclin A2 and against CDK4/cyclin D3 were no more than 7.00 and greater than 8.00, respectively.

As for `CO[C@H](C)c1cc2cnc(Nc3ccc(N4CCNCC4)c(C)n3)nc2c(NC(C)C)n1` [Compound 925], the pIC50 at CDK2/cyclin A2 is no more than 7.00; against CDK4/cyclin D3, greater than 8.00.

On to `CC(C)Nc1nc([C@@H](C)O)cc2cnc(Nc3ccc(N4CCC(O)CC4=O)cn3)nc12` (stereo partly drawn) [Compound 926], for which the values for the pIC50 against CDK2/cyclin A2 and at CDK4/cyclin D3 were no more than 7.00 and greater than 8.00, respectively.

Consider `CO[C@H](C)c1cc2cnc(Nc3ccc(OC4CCNCC4)cn3)nc2c(NCC2CCOCC2)n1` [Compound 927], for which the negative-log IC50 (pIC50) was no more than 7.00 against CDK2/cyclin A2 and greater than 8.00 at CDK4/cyclin D3.

For `CO[C@H](C)c1cc2cnc(Nc3ccc(CN4CCNCC4)cn3)nc2c(NC(C)C2CCOCC2)n1` (stereo partly drawn) [Compound 928], the figures for the negative logarithm of the IC50 (pIC50) on CDK2/cyclin A2 and against CDK4/cyclin D3 were no more than 7.00 and greater than 8.00, respectively.

Take `CNCCN1CCc2nc(Nc3ncc4cc([C@@H](C)O)nc(NC(C)C)c4n3)ccc2C1` [Compound 930]: the pIC50 was no more than 7.00 at CDK2/cyclin A2 and greater than 8.00 at CDK4/cyclin D3.

As for `CC(C)Nc1nc([C@@H](C)O)cc2cnc(Nc3ccc4c(n3)CCN(C(=O)[C@@H](N)C(C)C)C4)nc12` [Compound 931], the pIC50 at CDK2/cyclin A2 was no more than 7.00; against CDK4/cyclin D3 it was greater than 8.00.

For `CC(C)Nc1nc([C@@H](C)O)cc2cnc(Nc3ccc4c(n3)CCN(C(=O)C3CCNCC3)C4)nc12` [Compound 932], the pIC50 on CDK2/cyclin A2 is no more than 7.00; against CDK4/cyclin D3, greater than 8.00.

In the case of `CNC(=O)N1CCc2nc(Nc3ncc4cc([C@@H](C)O)nc(NC(C)C)c4n3)ccc2C1` [Compound 933], the figures for the negative-log IC50 (pIC50) on CDK2/cyclin A2 and against CDK4/cyclin D3 were no more than 7.00 and greater than 8.00, respectively.

`CC(C)Nc1nc([C@@H](C)O)cc2cnc(Nc3ccc4c(n3)CCN(S(C)(=O)=O)C4)nc12` [Compound 934]: the pIC50 was no more than 7.00 on CDK2/cyclin A2 and greater than 8.00 at CDK4/cyclin D3.

For the compound `CC(C)Nc1nc([C@@H](C)O)cc2cnc(Nc3ccc4c(n3)CCN(S(=O)(=O)N(C)C)C4)nc12` [Compound 935], the results for the negative-log IC50 (pIC50) against CDK2/cyclin A2 and on CDK4/cyclin D3 were no more than 7.00 and 7.00 to 8.00, respectively.

For `CC(C)Nc1nc([C@@H](C)O)cc2cnc(Nc3ccc(N4CCN(C(C)C#N)CC4=O)cn3)nc12` (stereo partly drawn) [Compound 936], the pIC50 against CDK2/cyclin A2 is no more than 7.00; against CDK4/cyclin D3 it was greater than 8.00.
